In the Kinase Knowledgebase extract (Sharma et al. 2016):

Molecular target: EGFR (human) (UniProt P00533)
Experiment: not given
Conditions: not given

Chain of EGFR (human) (P00533 whole entry, looked up): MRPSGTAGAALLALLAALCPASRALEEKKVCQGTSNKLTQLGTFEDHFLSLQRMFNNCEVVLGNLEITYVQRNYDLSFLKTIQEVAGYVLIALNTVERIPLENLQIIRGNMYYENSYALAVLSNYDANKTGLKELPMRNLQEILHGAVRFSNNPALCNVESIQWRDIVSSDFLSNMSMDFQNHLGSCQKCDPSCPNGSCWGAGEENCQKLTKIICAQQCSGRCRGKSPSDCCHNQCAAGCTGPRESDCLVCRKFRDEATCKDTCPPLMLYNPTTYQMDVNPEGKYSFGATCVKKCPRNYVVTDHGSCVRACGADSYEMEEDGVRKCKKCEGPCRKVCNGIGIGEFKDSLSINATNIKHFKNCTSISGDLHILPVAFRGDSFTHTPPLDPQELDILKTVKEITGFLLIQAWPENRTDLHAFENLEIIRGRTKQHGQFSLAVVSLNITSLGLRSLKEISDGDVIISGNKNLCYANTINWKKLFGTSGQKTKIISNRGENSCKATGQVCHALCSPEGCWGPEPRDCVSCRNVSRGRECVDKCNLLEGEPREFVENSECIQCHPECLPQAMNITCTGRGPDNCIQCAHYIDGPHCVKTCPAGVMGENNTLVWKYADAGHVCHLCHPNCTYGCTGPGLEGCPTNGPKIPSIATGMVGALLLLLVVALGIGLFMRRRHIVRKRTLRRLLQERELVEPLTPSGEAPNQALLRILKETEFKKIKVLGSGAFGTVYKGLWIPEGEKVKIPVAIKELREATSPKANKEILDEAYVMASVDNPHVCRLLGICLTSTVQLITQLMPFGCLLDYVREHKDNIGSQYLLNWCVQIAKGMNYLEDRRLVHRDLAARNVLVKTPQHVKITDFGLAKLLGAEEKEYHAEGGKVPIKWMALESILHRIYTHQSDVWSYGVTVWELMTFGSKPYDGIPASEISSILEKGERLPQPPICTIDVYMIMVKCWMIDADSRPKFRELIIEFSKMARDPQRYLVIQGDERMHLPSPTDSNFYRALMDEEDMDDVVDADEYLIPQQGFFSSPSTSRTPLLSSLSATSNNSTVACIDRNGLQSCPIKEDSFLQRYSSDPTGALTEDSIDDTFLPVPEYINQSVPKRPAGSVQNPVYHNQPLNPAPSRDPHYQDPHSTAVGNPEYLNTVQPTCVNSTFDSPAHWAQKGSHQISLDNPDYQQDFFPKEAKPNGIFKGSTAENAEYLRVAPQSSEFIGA

Row | IC50 | SMILES
1 | 2.3 nM | CC(C)(C)NC(=O)c1cccc(Oc2ccc(Nc3ncnc4ccn(CCO)c34)cc2Cl)c1
2 | 36 nM | O=C(O)C1=Cc2c(Cl)ncnc2NCC1
3 | 13000 nM | O=C1C2=C(C(=O)c3c(O)ccc(O)c31)[C@@H](O)[C@@H](O)[C@@H](O)C2
4 | 15000 nM | O=C1C(CO)=C(CO)C(=O)c2c(O)ccc(O)c21

Molecular target: EGFR (human) (UniProt P00533)
Experiment: not given
Conditions: a431

Row | IC50 | SMILES
5 | > 50000 nM | COc1ccc(OC)c(Cc2cc3c(NC4C=C(Br)C=CC4)nc(N)nc3[nH]2)c1 (stereo unspecified)

Molecular target: PIK3CA (human) (UniProt P42336)
Experiment: Antiproliferation of NZOV9 Cell Line Using Thymidine Depletion Assay
Conditions: not given

Chain of PIK3CA (human) (P42336 whole entry, looked up): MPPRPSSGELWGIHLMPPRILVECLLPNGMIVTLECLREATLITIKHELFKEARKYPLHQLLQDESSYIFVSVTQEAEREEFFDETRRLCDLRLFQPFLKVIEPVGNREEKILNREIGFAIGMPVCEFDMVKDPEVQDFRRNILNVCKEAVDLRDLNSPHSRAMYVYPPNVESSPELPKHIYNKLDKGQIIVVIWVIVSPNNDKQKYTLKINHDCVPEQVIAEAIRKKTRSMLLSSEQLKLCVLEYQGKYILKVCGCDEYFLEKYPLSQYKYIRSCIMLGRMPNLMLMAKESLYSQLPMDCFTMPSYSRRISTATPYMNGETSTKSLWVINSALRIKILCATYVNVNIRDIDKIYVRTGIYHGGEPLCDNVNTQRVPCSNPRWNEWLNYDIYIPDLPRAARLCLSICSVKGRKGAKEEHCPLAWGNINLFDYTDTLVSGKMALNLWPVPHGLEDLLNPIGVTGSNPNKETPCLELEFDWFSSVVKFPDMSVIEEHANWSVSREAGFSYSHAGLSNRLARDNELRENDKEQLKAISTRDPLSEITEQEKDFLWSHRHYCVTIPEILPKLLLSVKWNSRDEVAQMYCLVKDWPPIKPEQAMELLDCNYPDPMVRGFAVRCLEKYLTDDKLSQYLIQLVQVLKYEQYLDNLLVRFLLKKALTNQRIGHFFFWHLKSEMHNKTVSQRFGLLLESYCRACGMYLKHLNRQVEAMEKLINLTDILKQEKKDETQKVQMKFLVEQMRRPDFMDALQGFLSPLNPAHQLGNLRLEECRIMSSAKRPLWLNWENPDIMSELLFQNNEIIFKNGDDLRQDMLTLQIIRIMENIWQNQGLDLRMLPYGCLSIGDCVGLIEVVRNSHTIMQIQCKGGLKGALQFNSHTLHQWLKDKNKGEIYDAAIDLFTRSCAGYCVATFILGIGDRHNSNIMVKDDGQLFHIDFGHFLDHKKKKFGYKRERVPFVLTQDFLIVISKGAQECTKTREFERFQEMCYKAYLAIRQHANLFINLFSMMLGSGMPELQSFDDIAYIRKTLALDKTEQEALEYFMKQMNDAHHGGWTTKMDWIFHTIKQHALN

Row | IC50 | SMILES
6 | > 20000 nM | Cc1ccc([N+](=O)[O-])cc1S(=O)(=O)N(C)N=Cc1cn(C)c2ccccc12

Molecular target: ROCK2 (human) (UniProt O75116)
Experiment: Assessment of ROCK2 Kinase Activity (Fluorescence Polarization Assay)
Conditions: not given

Chain of ROCK2 (human) (O75116 whole entry, looked up): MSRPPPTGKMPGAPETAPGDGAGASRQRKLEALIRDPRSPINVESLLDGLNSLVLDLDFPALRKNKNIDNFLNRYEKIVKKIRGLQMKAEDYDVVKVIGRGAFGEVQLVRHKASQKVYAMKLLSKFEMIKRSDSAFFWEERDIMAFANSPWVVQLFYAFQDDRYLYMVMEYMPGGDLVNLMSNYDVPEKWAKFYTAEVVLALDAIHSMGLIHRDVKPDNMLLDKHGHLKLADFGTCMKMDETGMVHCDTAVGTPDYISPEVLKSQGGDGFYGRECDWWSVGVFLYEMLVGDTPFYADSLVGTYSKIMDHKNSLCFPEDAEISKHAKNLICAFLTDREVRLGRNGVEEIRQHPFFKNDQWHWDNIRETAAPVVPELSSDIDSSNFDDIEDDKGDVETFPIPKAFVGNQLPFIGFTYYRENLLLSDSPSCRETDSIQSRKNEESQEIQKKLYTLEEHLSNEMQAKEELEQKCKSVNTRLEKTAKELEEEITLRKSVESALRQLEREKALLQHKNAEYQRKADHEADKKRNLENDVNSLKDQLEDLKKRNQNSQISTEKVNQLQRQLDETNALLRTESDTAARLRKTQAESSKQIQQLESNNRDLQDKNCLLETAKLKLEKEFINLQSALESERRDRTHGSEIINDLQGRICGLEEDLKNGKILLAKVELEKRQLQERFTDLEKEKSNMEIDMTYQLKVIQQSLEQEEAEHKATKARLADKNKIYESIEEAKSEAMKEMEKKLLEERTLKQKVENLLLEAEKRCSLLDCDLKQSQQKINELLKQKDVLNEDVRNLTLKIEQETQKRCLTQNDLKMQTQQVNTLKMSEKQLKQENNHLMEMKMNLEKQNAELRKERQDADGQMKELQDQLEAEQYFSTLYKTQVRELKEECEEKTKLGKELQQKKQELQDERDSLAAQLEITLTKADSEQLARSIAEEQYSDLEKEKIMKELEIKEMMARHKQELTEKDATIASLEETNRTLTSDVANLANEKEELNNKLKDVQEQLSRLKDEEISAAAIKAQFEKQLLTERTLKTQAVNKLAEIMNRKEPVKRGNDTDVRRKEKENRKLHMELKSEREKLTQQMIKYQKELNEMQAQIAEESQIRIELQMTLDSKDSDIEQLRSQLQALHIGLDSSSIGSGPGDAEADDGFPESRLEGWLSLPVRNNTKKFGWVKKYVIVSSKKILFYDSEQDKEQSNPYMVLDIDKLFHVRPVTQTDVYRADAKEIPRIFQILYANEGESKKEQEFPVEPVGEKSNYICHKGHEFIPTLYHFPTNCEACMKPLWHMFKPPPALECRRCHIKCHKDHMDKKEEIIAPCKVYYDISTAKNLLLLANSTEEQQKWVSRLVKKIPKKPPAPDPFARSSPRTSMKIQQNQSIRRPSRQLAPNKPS

Row | IC50 | SMILES
7 | < 100 nM | CCCOC(=O)c1cc(-c2cc(C(=O)Nc3ccncc3)ccc2C(C)N)c[nH]1 (stereo unspecified)
8 | 100 to 1000 nM | Cc1ccc(S(=O)(=O)CCOC(=O)c2cccc(-c3cc(C(=O)Nc4ccncc4)ccc3C(C)N)c2)cc1 (stereo unspecified)
9 | < 100 nM | CC(N)c1ccc(C(=O)Nc2ccncc2)cc1-c1cccc(C(=O)OCc2ccncc2)c1 (stereo unspecified)
10 | 100 to 1000 nM | COC(=O)c1cc2c(-c3cc(C(=O)Nc4ccncc4)ccc3C(C)N)cccc2[nH]1 (stereo unspecified)

Molecular target: ROCK2 (human) (UniProt O75116)
Experiment: Assessment of ROCK2 Kinase Activity (ProQinase Setup)
Conditions: not given

Row | IC50 | SMILES
11 | 100 to 1000 nM | NCc1ccc(C(=O)Nc2ccncc2F)cc1-c1cccc(CC(=O)OC2CC3CCC2C3)c1 (stereo unspecified)
12 | 100 to 1000 nM | COCCCOC(=O)c1cccc(-c2cc(C(=O)Nc3ccncc3)ccc2CN)c1
13 | 100 to 1000 nM | NCc1ccc(C(=O)Nc2ccncc2F)cc1-c1cccc(C(=O)OC[C@H]2CCCO2)c1
14 | 100 to 1000 nM | NCc1ccc(C(=O)Nc2ccncc2F)cc1-c1cccc(CC(=O)OCC2CCCC2)c1

Molecular target: EGFR (UniProt P00533)
Experiment: not given
Conditions: not given

Chain of EGFR (P00533 whole entry, looked up): as the sequence (P00533 whole entry, looked up) above

Row | IC50 | SMILES
15 | 26 nM | Nc1ccc(-c2cc3c(N4CCCc5ccccc54)ncnc3[nH]2)cc1
16 | 2690 nM | Cc1[nH]c2ncnc(N3CCCc4ccccc43)c2c1C
17 | 210 nM | Nc1ccc(-c2cc3c(N4CCc5ccccc54)ncnc3[nH]2)cc1
18 | 1560 nM | Cc1[nH]c2ncnc(N3CCc4ccccc43)c2c1C

Molecular target: EGFR (human) (UniProt P00533)
Experiment: not given
Conditions: kb

Row | IC50 | SMILES
19 | 35 nM | COC(=O)N1CCC(Oc2cc3c(Nc4cccc(Cl)c4F)ncnc3cc2OC)CC1
20 | 9 nM | COc1cc2ncnc(Nc3cccc(Cl)c3F)c2cc1OC1CCN(C(=O)OCCN2CCCC2)CC1
21 | 15 nM | COc1cc2ncnc(Nc3ccc(F)c(Cl)c3F)c2cc1OC1CCN(C(=O)OCCN2CCCC2)CC1

Molecular target: EGFR (human) (UniProt P00533)
Experiment: not given
Conditions: a431
Remark: another data set of the same source

Row | EC50 | SMILES
22 | 13 nM | COCCOc1cc2ncnc(Nc3ccc4[nH]ccc4c3)c2cc1NC(=O)C=C1CCNCC1
23 | 300 nM | O=C(C=C1CCNCC1)Nc1ccc2ncnc(Nc3ccc4[nH]ccc4c3)c2c1
24 | 13000 nM | O=C(C=C1CCNC1)Nc1ccc2ncnc(Nc3cccc(Br)c3)c2c1
25 | 160 nM | CCOc1cc2ncc(C#N)c(Nc3ccc(OCc4ccccn4)c(Cl)c3)c2cc1NC(=O)C=C1CCNCC1

Molecular target: PIK3CA (human) (UniProt P42336)
Experiment: Assessment of PI3K Dependent Phosphorylation of p-AKT(T308) in PC3 Cells
Conditions: pc-3

Row | IC50 | SMILES
26 | 291 nM | CSc1c(-c2ccncc2)nc(-c2ccc(NC(=O)Nc3ccc(N4CCOCC4=O)cc3)cc2)nc1N1CCOCC1
27 | < 10 nM | CSc1c(-c2ccncc2)nc(-c2ccc(NC(=O)Nc3ccc(C(N)=O)cc3)cc2)nc1N1CCOCC1
28 | 141 nM | CSc1cnc(-c2ccc(NC(=O)Nc3ccc(N4CCOCC4=O)cc3)cc2)nc1N1CCOCC1
29 | < 10 nM | CCOc1cnc(-c2ccc(NC(=O)Nc3ccc(NS(C)(=O)=O)cc3)cc2)nc1N1CCOCC1

Molecular target: EGFR (Balb/c mice) (UniProt P00533)
Experiment: not given
Conditions: not given

Row | SMILES | LD50
30 | COc1cc2ncnc(Nc3cccc(C#N)c3)c2cc1OC | > 153 mg/kg
31 | Cc1ccc2ncnc(Nc3cccc(C(F)(F)F)c3)c2c1 | > 400 mg/kg

Same assay, conditions: dose or concentration not given here

Row | SMILES | toxicity
32 | COc1cc2ncnc(Nc3cccc(C(F)(F)F)c3)c2cc1OC | 40%

Molecular target: CDK2 (human) (UniProt P24941)
Experiment: Enzyme Assay
Conditions: not given

Row | IC50 | SMILES
33 | 420 nM | CC[C@@H](CO)Nc1cc(NCc2ccccc2)c2ncn(C(C)C)c2n1
34 | 360 nM | CC[C@H](CO)Nc1cc(NCc2ccc(-c3ccccn3)cc2)c2ncn(C(C)C)c2n1
35 | 300 nM | CC[C@H](CO)Nc1cc(NCc2ccccc2)c2ncn(C(C)C)c2n1
36 | 150 nM | CC[C@@H](CO)Nc1cc(NCc2ccc(-c3ccccn3)cc2)c2ncn(C(C)C)c2n1

Molecular target: EGFR (human) (UniProt P00533)
Experiment: not given
Conditions: not given
Remark: another data set of the same source

Row | IC50 | SMILES
37 | 0.5 nM | O=C(/C=C/CN1CC2CC1CO2)Nc1cc2c(Nc3ccc(F)c(Cl)c3)ncnc2cc1OC1CCCC1 (stereo unspecified)
38 | 0.5 nM | O=C(/C=C/N1CC2CC1CO2)Nc1cc2c(Nc3ccc(F)c(Cl)c3)ncnc2cc1O[C@H]1CCOC1 (stereo partly specified)
39 | 0.5 nM | O=C(/C=C/CN1CC2CC1CO2)Nc1cc2c(Nc3ccc(F)c(Cl)c3)ncnc2cc1O[C@H]1CCOC1 (stereo partly specified)
40 | 1.5 nM | O=C(/C=C/CN1CC2CC1CO2)Nc1cc2c(Nc3ccc(F)c(Cl)c3)ncnc2cc1OCC1CC1 (stereo unspecified)

Molecular target: PIK3CA (human) (UniProt P42336)
Experiment: Assessment of PIK3CA Kinase Activity in NZB5 Cells
Conditions: not given

Row | IC50 | SMILES
41 | > 20000 nM | Cc1ccc([N+](=O)[O-])cc1S(=O)(=O)N(C)N=Cc1cnn2cc(Br)ccc12
42 | > 20000 nM | Cc1ccc([N+](=O)[O-])cc1S(=O)(=O)N(C)N=Cc1cnn2cccc(Br)c12

Molecular target: EGFR (human) (UniProt P00533)
Experiment: not given
Conditions: not given
Remark: another data set of the same source

Row | IC50 | SMILES
43 | > 100000 nM | COC(=O)CCc1c(SSc2c(CCC(=O)OC)c3ccccc3n2C)n(C)c2ccccc12
44 | > 100000 nM | Cn1c(SSc2c(C(=O)Nc3cccnn3)c3ccccc3n2C)c(C(=O)Nc2cccnc2)c2ccccc21
45 | > 100000 nM | Cn1c(SSc2c(C(=O)Nc3ccccc3)c3cc(C(F)(F)F)ccc3n2C)c(C(=O)Nc2ccccc2)c2cc(C(F)(F)F)ccc21
46 | 26000 nM | CN(C)CCCn1c(SSc2c(C(=O)Nc3ccccc3)c3ccccc3n2CCCN(C)C)c(C(=O)Nc2ccccc2)c2ccccc21
